Converted amounts (≈) assume the structure as drawn. “And” between values parts separate entries of the source, which are not always exact repeats. Equal values may be shown once. Read-outs that look alike come from different tables or passages of the source.
Legend:
[1] = tested on: S. aureus ATCC 25923 biofilms; assay: Anti-biofilm viability assay with redox dye, pre- and post-exposure, S. aureus ATCC 25923 biofilms; type: cell-based, Staphylococcus aureus; conditions: for inhibition at 400 µM: ATCC25923; for % inhibition, Post-biofilm formation: at 400 μM, existing biofilms
[2] = tested on: S. aureus ATCC 25923 biofilms; assay: Viable plate counts and Log Reduction of S. aureus ATCC 25923 biofilms; type: cell-based, Staphylococcus aureus; conditions: 400 μM, viable plate counts
Procedure: The viability of S. aureus (ATCC 25923) biofilms left upon exposure to compounds 20, 21, 22 and 25 was determined using viable plate counts and calculating the Log Reduction (Log R) value. This procedure involves scrapping the biofilms off the substrate, disaggregating them by sonication and plating the resulting suspension in agar. The method is highly laborious but it is the gold standard for the quantification of anti-biofilm efficacy (Pitts et al. 2003). […] Of note, a log R value of 2 represents a reduction of 99% of the viable cells in the biofilms, and typically, a log R of 3 is considered a relevant indicator of the compound efficacy as an anti-biofilm agent.

[3] = tested on: S. epidermidis ATCC 35984; assay: Anti-biofilm activity against S. epidermidis ATCC 35984; type: cell-based, Staphylococcus epidermidis; conditions: tested at IC50 conc. measured against S. aureus ATCC 25923
Procedure: (§1) Four of the compounds were also tested against gram-negative E. coli biofilms as well as other Staphylococcal strains, at the corresponding IC50 values measured against S. aureus ATCC 25923 (Table 4). […] Nonetheless, all the compounds presented below were found active against S. epidermidis (ATCC 12228 and ATCC 35984) strains (Table 3).

[4] = tested on: HL cells; assay: Tolerability of mammalian cells, resazurin viability assay; type: cell-based, human; conditions: concentrations of up to 100 μM; 24 hours exposure
Procedure: Viability values were measured in acute conditions (24 hours exposure) using the resazurin assay as in Karlsson et al, 2012 (Eur J Pharm Sci. 2012 Aug 30;47(1):190-205). […] The least tolerated molecule was 25, as only 23% (±5.9) of cells remained viable upon exposure to 100 μM. However, concentrations up to 30 μM caused no cytotoxicity (90.2% of viable cells, ±0.5).

[5] = tested on: S. epidermidis ATCC 12228; assay: Anti-biofilm activity against S. epidermidis ATCC 12228; type: cell-based, Staphylococcus epidermidis; conditions: tested at IC50 conc. measured against S. aureus ATCC 25923
Procedure: as §1

[6] = tested on: single-cell bacteria; assay: Antibacterial activity (MIC) against single-cell (planktonic) bacteria; type: cell-based; conditions: Staphylococcus aureus, in the absence of biofilms, strain not stated
Excerpt: We selected six of the active compounds in the post-exposure assays namely, compounds 20, 21, 22, 25, 31 and 32 for the follow-up studies. […] In this mode of the assay, the interaction of the compounds occurs initially with single-cell bacteria (that is, a planktonic solution) before biofilms are formed. Therefore, we tested additionally if the compounds could exert antibacterial activity against single-cell bacteria, in the absence of biofilms. Based solely on conventional MIC and MBC values, antibacterial activities against single-cell bacteria were also high for the derivatives. […] The antibacterial activity order 22>21>25>31>20>32 correlated very well with the measured activity in preventing biofilm formation.

[7] = tested on: S. aureus Newman; assay: Anti-biofilm potency against S. aureus Newman biofilms; type: cell-based, Staphylococcus aureus
Excerpt: In fact, only 2-3 fold-higher concentrations of the compounds were needed to kill existing biofilms, in comparison to inhibiting bacterial colonization. […] Anti-biofilm potencies were all in the micromolar range and they were particularly significant for compound 22. […] The activity was also confirmed against S. aureus Newman strain. Potency values calculated for the S. aureus Newman (Table 3) were very similar to the values registered for S. aureus ATCC 25923.

[8] = tested on: E. coli XL1 blue; assay: Anti-biofilm activity against E. coli XL1 blue biofilms; type: cell-based, Escherichia coli; conditions: tested at IC50 conc. measured against S. aureus ATCC 25923
Procedure: as §1

[9] = tested on: S. aureus biofilm; conditions: Fallarero et al, 2013; cited from earlier work
[10] = Staphylococcus aureus, post-exposure, S. aureus ATCC 25923, read-out: % Inhibition 400 μM POST
[11] = Staphylococcus aureus, pre-exposure, S. aureus ATCC 25923, read-out: % Inhibition 400 μM PRE
[12] = Staphylococcus aureus, ATCC25923, 50% inhibition of biofilm viability, S. aureus ATCC 25923, read-out: Potency, IC50 Prior-to-biofilm formation
[13] = Staphylococcus aureus, ATCC25923, 50% inhibition of biofilm viability, S. aureus ATCC 25923, value in parentheses, read-out: Potency, IC50 Prior-to-biofilm formation
[14] = Staphylococcus aureus, ATCC25923, 24 h, measured 24 hours after adding to existing biofilms, S. aureus ATCC 25923, read-out: Potency, IC50 Post-biofilm formation
[15] = Staphylococcus aureus, ATCC25923, 24 h, measured 24 hours after adding to existing biofilms, S. aureus ATCC 25923, value in parentheses, read-out: Potency, IC50 Post-biofilm formation
[16] = Staphylococcus aureus, S. aureus Newman, read-out: Potency, IC50 Post-biofilm formation
[17] = Staphylococcus aureus, S. aureus Newman, read-out: Potency, IC50 Prior-to-biofilm formation
[18] = Staphylococcus aureus, S. aureus Newman, value in parentheses, read-out: Potency, IC50 Post-biofilm formation
[19] = Staphylococcus aureus, S. aureus Newman, value in parentheses, read-out: Potency, IC50 Prior-to-biofilm formation

Row | Molecule | inhibition at 400 µM [1, 10] [%] | inhibition at 400 µM [1, 11] [%] | IC50 [1, 12] [µM] | IC50 [1, 13] [µg/mL] | IC50 [1, 14] [µM] | IC50 [1, 15] [µg/mL] | MIC [6] [µg/mL] | IC50 [7, 16] [µM] | IC50 [7, 17] [µM] | IC50 [7, 18] [µg/mL] | IC50 [7, 19] [µg/mL] | also measured
1 | CC(C)c1ccc2c(c1)CC[C@H]1[C@](C)(C(=O)N[C@H](C(=O)O)C(C)C)CCC[C@]21C [Compound 18, N-(Abiet-8,11,13-trien-18-oyl) L-valine] | 99.2 | 100 | – | – | – | – | – | – | – | – | – | –
2 | CC[C@H](NC(=O)[C@]1(C)CCC[C@]2(C)c3ccc(C(C)C)cc3CC[C@@H]12)C(=O)O [Compound 19, N-(abiet-8,11,13-trien-18-oyl) Ethyl-L-glycine] | 98.9 | 99.8 | – | – | – | – | – | – | – | – | – | –
3 | CC(C)C[C@H](NC(=O)[C@]1(C)CCC[C@]2(C)c3ccc(C(C)C)cc3CC[C@@H]12)C(=O)O [Compound 20, N-(Abiet-8,11,13-trien-18-oyl) L-leucine] | 99.8 | 100 | 62.2 | 25.7 | 121 | 50.2 | 33.1 (≈ 80 µM) | 134 | 51.8 | 55.6 | 21.4 | Log Reduction (average ±SD) [2]: 3.9 (±0.4); Inhibition percentage (±SD) Post-biofilm formation [3]: −12 (±6.0) %; Inhibition percentage (±SD) Prior-to-biofilm formation [3]: 53.4 (±4.9) %; cytotoxicity in HL cells [4]: did not cause statistically significant cytotoxicity; Inhibition percentage (±SD) Post-biofilm formation [5]: 12.9 (±5.1) %; Inhibition percentage (±SD) Prior-to-biofilm formation [5]: 62.4 (±2.2) %; Inhibition percentage (±SD) Post-biofilm formation [8]: 39.9 (±4.6) %; Inhibition percentage (±SD) Prior-to-biofilm formation [8]: 14.2 (±4.5) %
4 | CC(C)c1ccc2c(c1)CC[C@H]1[C@](C)(C(=O)N[C@@H](Cc3ccccc3)C(=O)O)CCC[C@]21C [Compound 21, N-(Abiet-8,11,13-trien-18-oyl) L-phenylalanine] | 99.6 | 100 | 35.5 | 15.9 | 109 | 48.7 | 22.4 (≈ 50 µM) | 83.7 | 35.9 | 37.5 | 16.1 | Log Reduction (average ±SD) [2]: 4.3 (±0.2); Inhibition percentage (±SD) Post-biofilm formation [3]: 44.4 (±8.4) %; Inhibition percentage (±SD) Prior-to-biofilm formation [3]: 58.1 (±4.1) %; cytotoxicity in HL cells [4]: did not cause statistically significant cytotoxicity; Inhibition percentage (±SD) Post-biofilm formation [5]: 46.9 (±9.9) %; Inhibition percentage (±SD) Prior-to-biofilm formation [5]: 57.3 (±4.6) %; Inhibition percentage (±SD) Post-biofilm formation [8]: 30.4 (±6.1) %; Inhibition percentage (±SD) Prior-to-biofilm formation [8]: 7.4 (±2.7) %
5 | CSCC[C@@H](NC(=O)[C@]1(C)CCC[C@]2(C)c3ccc(C(C)C)cc3CC[C@@H]12)C(=O)O [Compound 23, N-(Abiet-8,11,13-trien-18-oyl) D-methionine] | 92.6 | 102 | – | – | – | – | – | – | – | – | – | –
6 | CC(C)c1ccc2c(c1)CC[C@H]1[C@](C)(C(=O)N[C@H](Cc3ccc(O)cc3)C(=O)O)CCC[C@]21C [Compound 24, N-(Abiet-8,11,13-trien-18-oyl) D-tyrosine] | 26.3 | 102 | – | – | – | – | – | – | – | – | – | –
7 | CC(C)c1ccc2c(c1)CC[C@H]1[C@](C)(C(=O)N[C@H](Cc3ccccc3)C(=O)O)CCC[C@]21C [Compound 31, N-(Abiet-8,11,13-trien-18-oyl) D-phenylalanine] | 102 | 102 | 37.4 | 16.7 | 98.2 | 44 | 31.3 (≈ 69.9 µM) | 110 | 36.2 | 49.4 | 16.2 | –
8 | CC(C)c1ccc2c(c1)C(=O)C[C@H]1[C@](C)(C(=O)N[C@@H](CC3CCCCC3)C(=O)O)CCC[C@]21C [Compound 32, N-(7-Oxoabiet-8,11,13-trien-18-oyl) Cyclohexyl-L-alanine] | 102 | 102 | 60.6 | 28.3 | 145 | 67.9 | 46.8 (≈ 100 µM) | 93.1 | 63.5 | 43.5 | 29.7 | –
9 | CC1(C)S[C@@H]2[C@H](NC(=O)Cc3ccccc3)C(=O)N2[C@H]1C(=O)O [Penicillin G, reference compound] | – | – | – | – | – | – | – | – | – | – | – | Log Reduction (average ±SD) [2]: 1.0 (±0.1); IC50 ([1]; 50% inhibition of biofilm viability, S. aureus ATCC 25923, read-out: Potency, IC50 Prior-to-biofilm formation): 0.13 µM; Potency, IC50 Prior-to-biofilm formation ([1]; 50% inhibition of biofilm viability, S. aureus ATCC 25923, value in parentheses): 0.048 µg/mL (≈ 0.144 µM); % inhibition, Post-biofilm formation ([1]; S. aureus ATCC 25923): 57% inhibition at 400 μM; IC50 ([7]; S. aureus Newman, read-out: Potency, IC50 Prior-to-biofilm formation): 0.27 µM; Potency, IC50 Prior-to-biofilm formation ([7]; S. aureus Newman, value in parentheses): 0.090 µg/mL (≈ 0.269 µM); % inhibition, Post-biofilm formation ([7]; at 400 μM, S. aureus Newman): 73% inhibition at 400 μM
10 | CN[C@H](CC(C)C)C(=O)N[C@H]1C(=O)N[C@@H](CC(N)=O)C(=O)N[C@H]2C(=O)N[C@H]3C(=O)N[C@H](C(=O)N[C@H](C(=O)O)c4cc(O)cc(O)c4-c4cc3ccc4O)[C@H](O)c3ccc(c(Cl)c3)Oc3cc2cc(c3O[C@@H]2O[C@H](CO)[C@@H](O)[C@H](O)[C@H]2O[C@H]2C[C@](C)(N)[C@H](O)[C@H](C)O2)Oc2ccc(cc2Cl)[C@H]1O [Vancomycin, reference compound] | – | – | – | – | – | – | – | – | – | – | – | IC50 ([1]; Staphylococcus aureus, ATCC25923, read-out: Potency, IC50 Prior-to-biofilm formation): 710 nM and 1.03 µg/mL; % inhibition, Post-biofilm formation ([1]; S. aureus ATCC 25923): 25% inhibition at 400 μM; inhibition at 400 µM ([7]; Staphylococcus aureus, NEWMAN, read-out: % inhibition, Post-biofilm formation): 37.9%; IC50 ([7]; Staphylococcus aureus, NEWMAN, read-out: Potency, IC50 Prior-to-biofilm formation): 1.3 µM and 1.88 µg/mL
11 | CC(C)c1ccc2c(c1)CC[C@H]1[C@](C)(C(=O)O)CCC[C@]21C [dehydroabietic acid] | – | – | – | – | – | – | – | – | – | – | – | prevention of S. aureus biofilm formation [9]: low micromolar range
12 | CC(C)c1ccc2c(c1)CC[C@H]1[C@](C)(CN)CCC[C@]21C [dehydroabietylamine] | – | – | – | – | – | – | – | – | – | – | – | prevention of S. aureus biofilm formation [9]: low micromolar range
13 | nordehydroabietylamine | – | – | – | – | – | – | – | – | – | – | – | prevention of S. aureus biofilm formation [9]: low micromolar range
